Source: patent US20220232831A1, “NOVEL NON-CODING HETEROCYCLIC AMINO ACIDS (NCHAA) AND THEIR USE AS HERBICIDES” (Fortephest Ltd., priority 2019, published 2022)

Tests used:
[1] = test system: Romaine lettuce (Lactuca sativa L.) plants; assay: Post-emergency herbicidal activity on Romaine lettuce plants; type: in vivo; conditions: Romaine lettuce at stage 2 to 3 leaves; compound in 0.1% Silwet, up to 0.5%; visual evaluation vs control plants
Description: The tests were performed on Romaine lettuce (Lactuca sativa L.) plants at the stage 2 to 3 leaves. The plants were grown on 300 well trays packed with soil, well dimensions 2×2×5 cm. Each compound was dissolved in 0.1% water solution of agronomically acceptable surfactant Silwet to final concentrations ranging from 0.0% (Control) to 0.5%. Two weeks after the treatment the herbicidal effects of the respective test material were visually evaluated by a comparison with the control plants. In addition, the aboveground part of the plant was neatly cut and weighed (wet weight). Each test was performed on 20 to 40 plants. The degree of growth inhibition and damage was evaluated according to the parameters in Table 2. Plant development at 7, 14, and 21 DAA (days after application) were evaluated on a scale of 0 to 100, in which score 0 represents dead plants and score 100 represents healthy plants according to plant vigor, height, and leaf color. Each test included 20 to 40 plants.

[2] = test system: Seeds of Lettuce R. (Super-Jericho); assay: Filter paper bioassay with lettuce seeds (germination and early plant development); type: in vivo; conditions: lettuce seeds on filter paper; 1, 0.1, 0.01, 0.001 mM; radicle and shoots assessed after 6 days
Description: Seeds of Lettuce R. (Super-Jericho, non-sterilized) were obtained from Ben Shahar Moshe Ltd., 99% purity.
Filter Paper Bioassays with Lettuce Seeds:
The protocol is following Bertin et al. 2009 and Movellan et al. 2014 with specified modifications as described below.
Seeds were placed on Whatman no. 1 filter paper (Whatman, Middlesex, U.K.) in Petri dishes (10 seeds per plate) supplemented with 2.0 ml of water (Control) or with a solution comprising 1 mM, 0.1 mM, 0.01 mM and 0.001 mM of test material. Petri dishes with seeds were placed in a tray at an angle of 45°. The trays were kept in dark for 48 hours and then transferred to the growth chamber (22° C., 0.045 mmol×m−2×s−1 photosynthetic photon flux density; 6/18 dark/light cycle) for additional 4 days. Each experiment was performed at least in two repeats. The development of radicle and shoots of experimental and control plants were visually assessed 6 days after the beginning of the test to determine Minimal Effective Concentration (MEC) of test material. In the context of the invention, MEC is defined as the lowest concentration level of a test material that caused deviation (absence of germination or malformation of radicle and shoots) from the plant's development in the Control group.

Row | SMILES | post-emergency herbicidal activity (Activity Index: plant's development vs Control) [1] | Minimal Effective Concentration (MEC) as activity score, seeds germination & early plants development [2]
1 | NC(CNS(=O)(=O)c1cc(Br)sc1Br)C(=O)O (centres unmarked) [Code 558] | Very Strong (From 15 to 25) | Maximal (0.01 mM and less)
2 | NC(Cc1cc[nH]c1)C(=O)O (centres unmarked) [Code 704] | Weak (More than 75) | Weak (More than 1 mM)
3 | NC(CC1CCS(=O)(=O)C1)C(=O)O (centres unmarked) [Code 561] | Weak (More than 75) | Weak (More than 1 mM)
4 | CCOC(=O)C(N)Cc1ccnc(Br)c1Br (centres unmarked) [Code 662] | Moderate (From 50 to 75) | Strong (0.1 mM)
5 | CCOC(=O)C(CN(C(=O)O)S(=O)(=O)c1cc(Cl)sc1Cl)NC(=O)O (centres unmarked) [Code 526] | Weak (More than 75) | Weak (More than 1 mM)
6 | NC(Cc1ccc(Cl)nc1)C(=O)O (centres unmarked) [Code 627] | Moderate (From 50 to 75) | Strong (0.1 mM)
7 | Cc1cncc(CC(N)C(=O)O)c1 (centres unmarked) [Code 606] | Weak (More than 75) | Weak (More than 1 mM)
8 | NC(Cc1cncc(C(F)(F)F)c1)C(=O)O (centres unmarked) [Code 637] | Weak (More than 75) | Strong (0.1 mM)
9 | NC(Cc1ccsc1)C(=O)NCCOCCO (centres unmarked) [Code 549] | Weak (More than 75) | Weak (More than 1 mM)
10 | NC(Cc1cncc(Cl)c1)C(=O)O (centres unmarked) [Code 622] | Moderate (From 50 to 75) | Strong (0.1 mM)
11 | Nc1nc(CC(N)C(=O)O)cs1 (centres unmarked) [Code 522] | Weak (More than 75) | Weak (More than 1 mM)
12 | CCOC(=O)C(Cc1cc(Cl)sc1Cl)NC(C)=O (centres unmarked) [Code 573] | Maximal (Less than 15) | Strong (0.1 mM)
13 | NC(Cc1ccoc1)C(=O)O (centres unmarked) [Code 534] | Strong (From 25 to 50) | Moderate (1 mM)
14 | Cl.NC(Cc1ccnc(C(F)(F)F)c1)C(=O)O (centres unmarked) [Code 679] | Strong (From 25 to 50) | Strong (0.1 mM)
15 | CCOC(=O)C(Cc1ccc(Br)nc1)NC(C)=O (centres unmarked) [Code 671] | Weak (More than 75) | Strong (0.1 mM)
16 | N[C@@H](Cc1cncc(O)c1)C(=O)O [Code 605] | Weak (More than 75) | Weak (More than 1 mM)
17 | N[C@@H](Cn1oc(=O)[nH]c1=O)C(=O)O [Code 557] | Weak (More than 75) | Weak (More than 1 mM)
18 | NC(Cc1cnc(Cl)c(Cl)c1)C(=O)O (centres unmarked) [Code 641] | Very Strong (From 15 to 25) | Strong (0.1 mM)
19 | NC(Cc1c(F)cnc(Br)c1F)C(=O)O (centres unmarked) [Code 655] | Maximal (Less than 15) | Strong (0.1 mM)
20 | CCOCCOCCOC(=O)C(Cc1cc(Cl)sc1Cl)NC(C)=O (centres unmarked) [Code 577] | Strong (From 25 to 50) | Moderate (1 mM)

Row | SMILES | post-emergency herbicidal activity (Activity Index: plant's development vs Control) [1] | Minimal Effective Concentration (MEC) as activity score, seeds germination & early plants development [2]
21 | NC(CC(=O)O)c1cscc1Br (centres unmarked) [Code 511] | Weak (More than 75) | Weak (More than 1 mM)
22 | COC(=O)C(Cc1ccc(Br)nc1)NC(C)=O (centres unmarked) [Code 672] | Moderate (From 50 to 75) | Strong (0.1 mM)
23 | Nc1ccnc(CC(N)C(=O)O)c1 (centres unmarked) [Code 607] | Weak (More than 75) | Weak (More than 1 mM)
24 | NC(Cc1cncc(S)c1)C(=O)O (centres unmarked) [Code 612] | Weak (More than 75) | Weak (More than 1 mM)
25 | NC(Cc1ccnnc1)C(=O)O (centres unmarked) [Code 601] | Weak (More than 75) | Weak (More than 1 mM)
26 | C[n+]1cncc(CC(N)C(=O)O)c1 (centres unmarked) [Code 676] | Very Strong (From 15 to 25) | Moderate (1 mM)
27 | NC(Cc1cnsn1)C(=O)O (centres unmarked) [Code 529] | Moderate (From 50 to 75) | Strong (0.1 mM)
28 | NC(Cc1cnccn1)C(=O)O (centres unmarked) [Code 621] | Weak (More than 75) | Weak (More than 1 mM)
29 | CCCOC(=O)C(N)Cc1ccnc(Br)c1 (centres unmarked) [Code 654] | Strong (From 25 to 50) | Strong (0.1 mM)
30 | NC(Cc1c[nH]c(=O)[nH]c1=O)C(=O)O (centres unmarked) [Code 620] | Weak (More than 75) | Weak (More than 1 mM)
31 | Cc1c(Cl)sc(Cl)c1S(=O)(=O)NCC(N)C(=O)O (centres unmarked) [Code 515] | Weak (More than 75) | Weak (More than 1 mM)
32 | CCOCCOC(=O)C(Cc1nc(Cl)sc1Cl)NC(C)=O (centres unmarked) [Code 555] | Maximal (Less than 15) | Strong (0.1 mM)
33 | CCOC(=O)C(N)Cc1ccsc1 (centres unmarked) [Code 547] | Very Strong (From 15 to 25) | Maximal (0.01 mM and less)
34 | CCCOC(=O)C(N)CNS(=O)(=O)c1ccnc(Br)c1 (centres unmarked) [Code 658] | Weak (More than 75) | Weak (More than 1 mM)
35 | NC(Cc1ccnc(S)c1)C(=O)O (centres unmarked) [Code 613] | Weak (More than 75) | Weak (More than 1 mM)
36 | NC(Cc1cnc[nH]c1=O)C(=O)O (centres unmarked) [Code 646] | Weak (More than 75) | Weak (More than 1 mM)
37 | CCOC(=O)C(Cc1ccnc(OC)n1)NC(C)=O (centres unmarked) [Code 673] | Weak (More than 75) | Weak (More than 1 mM)
38 | NC(Cc1cc(Cl)nc(Cl)c1)C(=O)O (centres unmarked) [Code 628] | Very Strong (From 15 to 25) | Moderate (1 mM)
39 | NC(Cc1nnc[nH]1)C(=O)O (centres unmarked) [Code 709] | Maximal (Less than 15) | Moderate (1 mM)
40 | Cl.Cl.NC(Cc1cccnc1)C(=O)O (centres unmarked) [Code 603] | Strong (From 25 to 50) | Strong (0.1 mM)
